Measurements from the supplement of paper PMC8671470.
± gives the standard deviation of the averaged measurements.

Tests used:
HL-60 = test: cell viability (% survival relative to DMSO control); higher = less cytotoxic; settings: 72 h
In short: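 HL-60 cells in RPMI 1640 with 10% FBS were rescreened against the full library on 384-well plates at five tenfold concentrations, 1–10,000 nM, in duplicate. Each screen was run with DMSO or 100 nM of one of three metabolic inhibitors, for 72 h at 37 °C, 5% CO2. Viability was read by CellTiter-Glo and normalised to DMSO and 10 μM proteasome-inhibitor wells. Where given, area under the curve came from four-parameter log-logistic fits (drc, PharmacoGx).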

MV4-11 = test: cell viability (% survival relative to DMSO control, bortezomib = 0%); higher = less cytotoxic; settings: 72 h
In short: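 Fifteen myeloid leukaemia cell lines (10 AML, 5 CML) were seeded at a density titrated to the linear growth range. They went into 384-well plates with compounds pre-printed at 1, 10, 100, 1000 or 10000 nM in duplicate. After 72 h at 37 °C with 5% CO2, viability was read by CellTiter-Glo luminescence. Values are percent survival, with vehicle set to 100% and a 10 µM positive control to 0%, averaged over the duplicates.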

[1] = 0.001 µM, co-treatment: AZD3965 100 nM
[2] = 0.001 µM, co-treatment: DMSO vehicle
[3] = 0.001 µM, co-treatment: GSK2194069 100 nM
[4] = 0.001 µM, co-treatment: pictilisib 100 nM
[5] = 0.01 µM, co-treatment: AZD3965 100 nM
[6] = 0.01 µM, co-treatment: DMSO vehicle
[7] = 0.01 µM, co-treatment: GSK2194069 100 nM
[8] = 0.01 µM, co-treatment: pictilisib 100 nM
[9] = 0.1 µM, co-treatment: AZD3965 100 nM
[10] = 0.1 µM, co-treatment: DMSO vehicle
[11] = 0.1 µM, co-treatment: GSK2194069 100 nM
[12] = 0.1 µM, co-treatment: pictilisib 100 nM
[13] = 1 µM, co-treatment: AZD3965 100 nM
[14] = 1 µM, co-treatment: DMSO vehicle
[15] = 1 µM, co-treatment: GSK2194069 100 nM
[16] = 1 µM, co-treatment: pictilisib 100 nM
[17] = 10 µM, co-treatment: AZD3965 100 nM
[18] = 10 µM, co-treatment: DMSO vehicle
[19] = 10 µM, co-treatment: GSK2194069 100 nM
[20] = 10 µM, co-treatment: pictilisib 100 nM

SMILES	cell viability (HL-60; [1]) [%]	cell viability (HL-60; [2]) [%]	cell viability (HL-60; [3]) [%]	cell viability (HL-60; [4]) [%]	cell viability (HL-60; [5]) [%]	cell viability (HL-60; [6]) [%]	cell viability (HL-60; [7]) [%]	cell viability (HL-60; [8]) [%]	cell viability (HL-60; [9]) [%]	cell viability (HL-60; [10]) [%]	cell viability (HL-60; [11]) [%]	cell viability (HL-60; [12]) [%]	cell viability (HL-60; [13]) [%]	cell viability (HL-60; [14]) [%]	cell viability (HL-60; [15]) [%]	cell viability (HL-60; [16]) [%]	cell viability (HL-60; [17]) [%]	cell viability (HL-60; [18]) [%]	cell viability (HL-60; [19]) [%]	cell viability (HL-60; [20]) [%]	cell viability (MV4-11; 1 nM) [%]	cell viability (MV4-11; 10 nM) [%]	cell viability (MV4-11; 100 nM) [%]	cell viability (MV4-11; 1000 nM) [%]	cell viability (MV4-11; 10000 nM) [%]
NS(=O)(=O)c1ccc([N+](=O)[O-])cc1 [4-Nitrobenzenesulfonamide]	91.2 ± 9.5	92.3 ± 10	96.7 ± 2.9	105 ± 14	100.8 ± 0.12	96.5 ± 4.2	96.8 ± 3.1	98.6 ± 2.2	103 ± 2.7	104 ± 5.4	100.73 ± 0.083	101 ± 1.9	97.7 ± 3	104 ± 1.6	102 ± 6	99.4 ± 5.1	90.6 ± 17	100 ± 1.9	98.17 ± 0.39	91.7 ± 7.5	102	93.4	115	94.3	114
Cc1ccccc1C(C(=O)NC1CCCCC1)N(C(=O)Cn1ccnc1C)c1cccc(F)c1 (stereo not given) [AGI-5198]	95.1 ± 5.2	98.5 ± 2.9	103 ± 7.5	98.4 ± 13	98.5 ± 3.8	106 ± 3.2	101 ± 5.5	114 ± 16	93.2 ± 6.7	104 ± 7.8	88.5 ± 15	103 ± 3.8	91.8 ± 9.9	99.4 ± 1.1	101 ± 1.5	102 ± 0.28	100.5 ± 0.15	95.7 ± 5.1	106 ± 5.5	104 ± 26	94	102	91.5	91.4	115
CC(C)(C#N)c1cc(Cn2cncn2)cc(C(C)(C)C#N)c1 [Anastrozole]	97.5 ± 3.3	101 ± 6.5	96.7 ± 12	104 ± 4.6	101.3 ± 0.95	100 ± 2.8	94.4 ± 5.3	92.3 ± 1.6	102 ± 1.2	101 ± 2.3	120 ± 3.8	106 ± 13	102 ± 1.9	101.7 ± 0.4	102 ± 1.1	108 ± 7.9	100 ± 6.9	102 ± 2.8	100 ± 13	101 ± 3.9	116	99.4	92.9	87.8	96.4
COc1ccc(S(=O)(=O)N2CCN(S(=O)(=O)c3ccc4c(c3)OCCO4)CC2)cc1 [BML283]	101.4 ± 0.56	102 ± 1.8	99.2 ± 4.8	105 ± 6	96.5 ± 11	86.2 ± 23	74.9 ± 37	74.7 ± 30	107 ± 2.3	103 ± 1.7	99.56 ± 0.47	100.2 ± 0.69	104 ± 9.1	107 ± 7.4	99.4 ± 1.7	90.1 ± 7.7	84 ± 9.5	97.1 ± 1.6	98.6 ± 6.9	77.4 ± 14	103	93.6	89	94.1	101
O=c1cc(-c2ccccc2)oc2cc(O)c(O)c(O)c12 [Baicalein]	99.72 ± 0.59	102.7 ± 0.15	97.26 ± 0.92	99.21 ± 0.82	100 ± 5.5	102 ± 1.9	102 ± 2.2	106 ± 2.4	103 ± 4.9	101 ± 4.4	93.5 ± 4.6	98.9 ± 2.1	97.6 ± 1.2	98.895 ± 0.092	98.1 ± 5.9	106 ± 1.5	101.4 ± 0.93	102 ± 7.6	99.8 ± 4	89.5 ± 7.1	97.8	102	98.7	113	54
O=c1oc2c(O)c(O)cc3c(=O)oc4c(O)c(O)cc1c4c23 [Benzoaric Acid]	98.61 ± 0.51	102.3 ± 0.26	101 ± 0.64	106 ± 9.2	96.4 ± 5.9	100.2 ± 0.36	97.6 ± 3.1	104 ± 17	101 ± 5.7	99.9 ± 1.1	95.1 ± 1.7	101.4 ± 0.41	99.21 ± 0.23	102 ± 4.1	94.3 ± 0.58	99.2 ± 1.9	99.13 ± 0.98	100 ± 7.2	100 ± 3.9	96.3 ± 2.1	107	90.5	98.8	94.2	97.2
O=C(O)CCCCC(CCSCc1ccccc1)SCc1ccccc1 (stereo not given) [CPI-613]	102 ± 4.3	98.6 ± 2.1	97.55 ± 0.73	105 ± 4.5	97.3 ± 4.7	101 ± 3.1	101 ± 2.7	98.8 ± 8.4	98.6 ± 4.9	95.2 ± 9	89.4 ± 20	88.5 ± 24	104 ± 2.1	103 ± 9.6	104 ± 11	103 ± 13	105 ± 3.5	108 ± 6.2	107.3 ± 0.4	107 ± 2.6	107	90.5	96.6	93	105
CC(C)c1cc2c(c(O)c1O)[C@@]1(C(=O)O)CCCC(C)(C)[C@@H]1CC2 [Carnosic acid]	98.3 ± 1.3	96.16 ± 0.17	101 ± 5.3	93.2 ± 7.5	101 ± 5.2	100.2 ± 0.6	89.4 ± 19	102 ± 2.3	117 ± 20	99.2 ± 2.8	105 ± 5.3	97.6 ± 10	98.58 ± 0.66	97.53 ± 0.66	99.3 ± 2.7	96.1 ± 1.2	100 ± 1.1	103 ± 2.5	95.3 ± 2.3	116 ± 11	98.5	103	93.5	91.7	79.9
CCN(CC)CCCC(C)Nc1ccnc2cc(Cl)ccc12 (stereo not given) [Chloroquine]	102 ± 1.2	104 ± 3.9	102.2 ± 0.76	96.1 ± 2.8	87.5 ± 17	91.3 ± 17	77.2 ± 30	67.7 ± 45	107.4 ± 0.11	102.4 ± 0.66	98.3 ± 1.5	104 ± 2.7	104 ± 5.8	106 ± 4.4	102 ± 5.2	103.8 ± 0.31	97.5 ± 7.8	99.7 ± 1.6	89.7 ± 6.5	100 ± 22	108	93.7	105	104	90.5
